# Results as given in US20250170159A1, “COMPOSITIONS COMPRISING STING AGONISTS AND METHODS OF USE FOR TREATING GLIOMA” (ImmunoGenesis, Inc., priority 2023, published 2025).
# T1: PD-1: PD-L2 (Homo sapiens, UniProt Q9BQ51)
# T1 construct: expressed in transfected cells; host or cells: PD-1 expressing effector cells and PD-L2+ artificial antigen presenting cells
# T1 sequence (Q9BQ51 20-273): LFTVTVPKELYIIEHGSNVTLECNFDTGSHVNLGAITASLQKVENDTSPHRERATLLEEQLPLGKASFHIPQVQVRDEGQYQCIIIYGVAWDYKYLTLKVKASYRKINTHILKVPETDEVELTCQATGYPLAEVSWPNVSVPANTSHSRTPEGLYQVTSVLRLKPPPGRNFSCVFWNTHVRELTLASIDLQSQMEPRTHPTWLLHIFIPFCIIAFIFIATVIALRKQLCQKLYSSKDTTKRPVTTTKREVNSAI
# B1: Ab-27907: dual functioning PD-L1/PD-L2 monoclonal antibody; Fc point mutations enhance cell-mediated effector functions (antibody, V domains shown)
# VH: QVQLVESGGGVIQPGRSLRLSCAASGFTFSAYLMHWVRQAPGKGLEWVAAIGYDGMNKYYADSVKGRFTISRDNSKNTLYLQMNSLRAEDTAVYYCARAGIEYSYAYTDYWGQGTLVTVSS
# VL: EIVLTQSPGTLSLSPGERATLSCRASQFVYSSDLAWYQQKPGQAPRLLIYGASARAAGIPDRFSGSGSGTDFTLTISRLEPEDFAVYYCMQFGWWPPRTFGGGTKVEIK
# Tests used:
# [1] = system: QPP8 glioma cells; conditions: administered on days 14, 21, and 28
# Source text: The total amount of immune cells was quantified based on all live CD45+ cells and specifically on CD11b+Ly6C+ expression of mono-MDSCs. […] Each dot represents an analyzed tumor or LN. FIG. 16E: Expression of immunosuppressive markers CD206 and CD163 spanning myeloid populations and as a function of treatment. FIG. 16F: Myeloid PD-L1 expression on various immune lineages in tumors and LNs.
# [2] = system: spontaneous unresected gliomas; conditions: dogs; previously shown (ref 12); cited from earlier work
# [3] = system: spontaneous unresected gliomas; test: Intratumoral delivery of STING agonist in spontaneous canine high-grade glioma; assay type: in vivo, dog
# Description: A single ˜5 mm-diameter burr hole craniectomy was made at entry point determined by Brainsight Neuronavigation System.
# A 100 uL-Hamilton syringe secured in a calibrated holder on an x-y stage containing 50 μL of Compound C at varying concentrations
# Contrast enhancing target was selected using the MRI reconstruction.
# Compound of Formula C was injected at a rate of 2 uL/minute.
# Compound of Formula C was administered via repeated intratumoral injections up to 20 μg in 50 uL in a large animals (canines) with spontaneous unresected gliomas.
# [4] = system: human U87 glioma cells; test: Humanized mice implanted with human U87 glioma cells; assay type: in vivo, mouse
# Source text: . (FIG. 15A) Multiplexed sequential immunofluorescence images of the STING expression at baseline in humanized mouse brain implanted with U87 glioma cells and collected at endpoint. The right image represents a high magnification of the white box drawn in the left image. The white arrows highlight CD31+STING+ vessels and green arrows highlight the CD163+STING+ macrophages. […] Scale bars: 500 μm (left panel) and 50 μm (right panel). A higher magnification image of a CD163+STING+ cell is represented at the upper right quadrant of the right image (scale bar: 20 μm). […] MFI, mean fluorescence intensity; h, human; TAM, tumor-associated macrophage; Mono, monocyte; PMN, […]; MDSC, myeloid-derived suppressor cell. […] The markers were assessed via Cytek Aurora flow cytometer and the CD45+CD11b+ population was analyzed for the indicated markers. *P<0.05; ** P<0.01; *** P<0.001; **** P<0.0001 by 2-tailed Student's t test (FIGS. 15E-H).
# STING expression on human and murine glioma cells was analyzed (FIG. 15A). […] To evaluate whether this treatment induces an inflammatory response directed against the CNS, the mice were evaluated daily. […]
# [5] = system: GL261 glioma cells; conditions: FIG. 18B left panel; control MS 25 days
# Source text: FIG. 18A: Schema of the treatment of immunocompetent mice that underwent i.e. implantation of either GL261 or CT-2A glioma cells. […] FIG. 18C: Schema of the treatment of immunocompetent mice that underwent i.e. implantation of either CT-2A or QPP8v (subclone) glioma cells. […] FIG. 18E: Multiplexed sequential immunofluorescence images of untreated CT-2A gliomas (n=3). […] White boxes outline the portion shown at higher magnification in the right column of images. Scale bars: 500 μm (left 3 columns) and 50 μm (right column).
# [6] = system: CT-2A glioma cells; conditions: FIG. 18B right panel; control MS 28 days
# Description: As such, we evaluated synergy in the CT-2A and QPP8v immunocompetent murine glioma models. […] To visualize TME features that would be reflective of response, the CT-2A model was treated on day 7 and during the therapeutic window, the activation of the STING pathway (i.e., p-IRF3) and the immune infiltration were analyzed with multiplexed SeqIF imaging.
# [7] = biological target: T1, PD-1: PD-L2; test: PD-1 pathway blockade reporter cell assay, PD-L2+ cells; assay type: cell-based; conditions: FIG. 9
# Description: (§1) A dose range of 50.000-0.015 nM was tested against PD-L1+ cells (FIG. 9A), PD-L2+ cells (FIG. 9B), and a 50:50 mixture of PD-L1+ and PD-L2+ cells (FIG. 9C). Nonlinear regression was used to generate best-fit curves in GraphPad Prism.
# (§2) The ability of Ab-27907 to interrupt the PD-1 pathway through binding of the ligands PD-L1 and PD-L2 was tested in a reporter cell system. In this assay, PD-1 expressing effector cells are incubated with artificial antigen presenting cells expressing PD-L1 or PD-L2 with a T cell receptor (TCR). Without any antibodies, luminescence activity is low, as PD-1 binds its ligands, preventing TCR engagement and production of luciferase.
# [8] = system: TS/A tumor; test: TS/A mouse model of mammary carcinoma; conditions: versus control group
# [9] = system: U2940 human B-cell lymphoma, 8505C human thyroid carcinoma, and B16F10-PDL2 murine melanoma tumor cell lines; test: ADCP reporter cell assay; assay type: cell-based; conditions: FIG. 10
# Description: (§3) A dose range was tested in ADCC (FIGS. 10A, 10C, and 10E) and ADCP FIGS. 10B, 10C, and 10F) assays against U2940 human B-cell lymphoma (FIGS. 10A and 10B), 8505C human thyroid carcinoma (FIGS. 10C and 10D), and B16F10-PDL2 murine melanoma (FIGS. 10E, and 10F) tumor cell lines.
# [10] = system: B16F10-PDL2 tumor; test: B16F10-PDL2 melanoma tumor-bearing mice; conditions: monotherapy, first 2 weeks
# Source text: Left: Mean±SEM tumor volume (mm^3) is plotted on the y-axis against days post tumor inoculation on the x-axis. Right: Kaplan Meier plots of survival.
# [11] = biological target: T2, PD-1: PD-L1 (Homo sapiens, UniProt Q9NZQ7); test: PD-1 pathway blockade reporter cell assay, PD-L1+ cells; assay type: cell-based; conditions: FIG. 9
# T2 construct: expressed in transfected cells; host or cells: PD-1 expressing effector cells and PD-L1+ artificial antigen presenting cells
# Description: as §1, §2
# [12] = system: U2940 human B-cell lymphoma, 8505C human thyroid carcinoma, and B16F10-PDL2 murine melanoma tumor cell lines; test: ADCC reporter cell assay; assay type: cell-based; conditions: FIG. 10
# Description: as §3
# T2 sequence (Q9NZQ7 19-290): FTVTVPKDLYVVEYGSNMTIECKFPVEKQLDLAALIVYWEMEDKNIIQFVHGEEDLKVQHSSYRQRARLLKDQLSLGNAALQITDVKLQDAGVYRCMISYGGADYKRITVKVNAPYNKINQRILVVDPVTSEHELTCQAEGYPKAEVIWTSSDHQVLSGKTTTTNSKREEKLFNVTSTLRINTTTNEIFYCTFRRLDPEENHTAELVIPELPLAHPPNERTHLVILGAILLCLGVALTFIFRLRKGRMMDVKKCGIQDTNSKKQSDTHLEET
molecule,measurement,setting,value
Nc1ncnc2c1ccn2[C@@H]1O[C@@H]2COP(=O)(S)O[C@@H]3[C@H](O)[C@@H](COP(=O)(S)O[C@H]2[C@H]1O)O[C@H]3n1cnc2c(N)ncnc21 (stereo partly drawn) [Compound 8779],therapeutic outcome,[1],curative
same,median survival (MS),[1]; control MS=103 days,undefined
same,radiographic regression in spontaneously arising glioblastomas,[2],induces radiographic regression
Nc1ncnc2c1ccn2[C@@H]1O[C@@H]2COP(=O)(S)O[C@@H]3[C@H](O)[C@@H](COP(=O)(S)O[C@H]2[C@H]1O)O[C@H]3n1cnc2c(N)ncnc21 (stereo partly drawn) [Compound C],radiographic responses in spontaneously arising high-grade gliomas,"[3]; dog, single injection",can produce radiographic responses
same,MTD,"[3]; repeated intratumoral injections in 50 uL, canines with unresected gliomas",15 to 20 µg
"Nc1ncnc2c1ncn2[C@@H]1O[C@@H]2COP(O)(=S)O[C@@H]3C(O)[C@@H](COP(O)(=S)O[C@H]2[C@H]1O)O[C@H]3n1cnc2c(N)ncnc21 (stereo partly drawn) [MLRR-S2-CDA, reference compound]",survival of U87 tumor-bearing animals,[4]; both P<0.0001,significantly extended survival
same,median survival (MS),"[4]; treated on days 5, 10, and 15, control MS 26.5 days",35 days
"C[C@H](NC(=O)/C(C#N)=C/c1cccc(Br)n1)c1ccccc1 [WP1066, reference compound]",median survival (MS),[5],30 days
same,median survival (MS),[6],28 days
B1,blockade of PD-1: PD-L2,[7],additionally blocks PD-1: PD-L2
same,survival,[8],significant extended survival
same,capacity to induce ADCP,[9],robust activity
same,tumor growth,[10],significantly inhibited tumor growth
same,blockade of PD-1: PD-L1,[11],blocks PD-1: PD-L1 as well as pembrolizumab
same,capacity to induce ADCC,[12],robust activity
